Assay results taken from patent US20250235467A1, “DENDRITIC CELL VACCINATION IN PARALLEL TO CHEMOTHERAPY” (priority 2018, published 2025).
Like-named read-outs stand apart in the source and are kept apart here. Marks after values point to notes of the source that are not given here.

What was measured:
[1] = system: relapsed platinum-sensitive epithelial ovarian cancer; assay: Randomized, open-label phase II clinical trial, DC vaccine added to carboplatin and gemcitabine vs chemotherapy alone; type: in vivo, human; details: ITT population, N = 32 per group
Source text: An interim analysis was first performed, followed later by the final analysis.
A total of 6, 8, or 10 cycles of standard of care chemotherapy were to be completed by patients in both treatment groups as per investigators' decision (FIG. 4).

[2] = system: metastatic stage IV non-small cell lung cancer (NSCLC); assay: Open label, multicenter phase II clinical trial, DCVAC/LuCa + carboplatin and paclitaxel vs carboplatin and paclitaxel alone; type: in vivo, human; details: PP population; interim analysis of PFS
Method: The purpose of the study is to compare efficacy of DCVAC/LuCa+chemotherapy (carboplatin and paclitaxel) vs. carboplatin and paclitaxel alone in patients with stage IV NSCLC, as measured by OS and progression free survival (PFS). PFS was measured based on radiological assessments according to the RECIST (Response Evaluation Criteria in Solid Tumors) guidelines (version 1.1) (Eisenhauer et al. 2009).
The planned number of chemotherapy cycles was 4-6 in all treatment groups (FIG. 7).

[3] = system: newly diagnosed epithelial ovarian carcinoma
Method: The study was conducted as an open label, multicenter phase II clinical trial in women with newly diagnosed epithelial ovarian carcinoma who have undergone debulking surgery.
The planned number of chemotherapy cycles was 6 in all treatment groups (FIG. 1).
Results were calculated either by using as beginning of the trial period the time of first treatment or the time of randomization. Two pre-planned per protocol interim analyses of PFS and OS were performed first at 6 months and second at 12 months after the last dose of standard of care chemotherapy of the last enrolled patient. […]

[4] = system: platinum-sensitive recurrent ovarian cancer; details: cited from earlier work; for PFS HR: p <0.0001
[5] = group A: after the start of DC vaccine treatment, group B: shorter reporting time period

Substance: carboplatin and gemcitabine
- No. of 2nd-line chemotherapy non-responders: n (%) [1]: 0 (0.00%) n (%)

Substance: carboplatin and paclitaxel
- Progression of the lung cancer disease [2]: progressed for all patients
- No. of 1st-line chemotherapy non-responders: n (%) ([3]; ITT population, N = 31 per group): 0 (0.00%) n (%)
- Number of SAEs reported [3, 5]: 14
- Number of patients in whom SAEs were reported [3, 5]: 9

Substance: Bevacizumab
- OS HR ([4]; bevacizumab 15 mg/kg IV q3w + carboplatin AUC4 + gemcitabine, p 0.6479): 0.952^c
- OS HR ([4]; bevacizumab 15 mg/kg IV q3w + carboplatin AUC4 + gemcitabine, p 0.6479, listed as bevacizumab): 0.952
- PFS HR ([4]; bevacizumab 15 mg/kg IV q3w + carboplatin AUC4 + gemcitabine): 0.48^c
- OS HR ([4]; bevacizumab 15 mg/kg IV q3w + carboplatin AUC5 + paclitaxel, p 0.0447): 0.823^c
- OS HR ([4]; bevacizumab 15 mg/kg IV q3w + carboplatin AUC5 + paclitaxel, p 0.0447, listed as bevacizumab): 0.823
- PFS HR ([4]; bevacizumab 15 mg/kg IV q3w + carboplatin AUC5 + paclitaxel): 0.613^c
